{"source": "PubChem BioAssay (NCI)", "note": "Where “and” joins values, the source holds several entries; their conditions need not be identical. Equal values may be shown once.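 Protocol summary: plate cells (96-well), add compound at 5 concentrations, incubate 48 h, interpolate endpoints linearly. GI50 marks 50% less growth. TGI: concentration producing complete growth inhibition.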", "data": [{"tested_on": "MDA-MB-468 breast", "assay": "inhibition of tumour cell growth, NCI panel, 48 h", "values": [{"smiles": "Cc1cc(Cl)nc(N(CCCNc2ccnc3cc(Cl)ccc23)Cc2ccco2)n1", "GI50": "1120 nM", "TGI": "3940 nM"}, {"smiles": "O=C1Cc2cc(C(=O)NC3C[C@H]4CC[C@@H](C3)N4S(=O)(=O)CC3CCN(CCCC(F)(F)F)CC3)c(Cl)cc2N1", "note": "(some centres not stated)", "GI50": "27000 nM", "TGI": "> 100000 nM"}, {"smiles": "CN1CCN(c2nc(-c3cnc4ccccc4n3)cc3ccccc23)CC1", "GI50": "4980 nM", "TGI": "10600 nM"}, {"smiles": "Cc1cc([N+](=O)[O-])c2ccccc2[n+]1[O-]", "GI50": "180 nM and 121 nM", "TGI": "512 nM and 369 nM"}, {"smiles": "O=C1/C=C/[C@@H](O)[C@@H]2C[C@@H](O)C[C@H]2/C=C/CCC[C@H](C(F)(F)F)O1", "GI50": "23.3 nM", "TGI": "69.1 nM"}, {"smiles": "Cn1ncc(Cl)c1-c1cc(C(=O)N[C@H](CN)Cc2ccc(F)c(F)c2)oc1Cl", "GI50": "< 16.9 nM and 19.4 nM", "TGI": "282 nM and 458 nM"}, {"smiles": "CO[C@H]1C[C@@H]2CC[C@@H](C)[C@@](O)(O2)C(=O)C(=O)N2CCCC[C@H]2C(=O)O[C@H]([C@H](C)C[C@@H]2CC[C@@H](OCCO)[C@H](OC)C2)CC(=O)[C@H](C)C=C(C)[C@@H](O)[C@@H](OC)C(=O)[C@H](C)C[C@H](C)/C=C/C=C/C=C1C", "GI50": "< 11.7 nM", "TGI": "14900 nM"}, {"smiles": "CN1CCN(CCCOc2cccc3nc(Nc4ccc(Cl)c(C(F)(F)F)c4)ccc23)CC1", "GI50": "1600 nM", "TGI": "3220 nM"}, {"smiles": "CN1CSC(=S)N(Cc2ccccc2)C1", "GI50": "2020 nM", "TGI": "6030 nM"}, {"smiles": "COc1ccc(N=N/C(C(=O)C(F)(F)F)=C(\\O)c2ccc(Cl)cc2)cc1", "GI50": "1840 nM", "TGI": "5680 nM"}, {"smiles": "CC[C@H](C)[C@H](NC(=O)CN(C)C)C(=O)N(C)[C@H](C[C@@H](OC(C)=O)c1nc(C(=O)NC23CC(C(=O)OC)(C2)C3)cs1)C(C)C", "GI50": "130 nM", "TGI": "> 25000 nM"}, {"smiles": "CN(CC(=O)N(Cc1ccc(C2CCCCC2)cc1)c1ccc(C(=O)O)cc1)S(=O)(=O)c1c(F)c(F)c(F)c(F)c1F", "GI50": "1760 nM", "TGI": "3270 nM"}, {"smiles": "CC(=O)c1c(C)[nH]c(-c2nc3ccc(N4CCN(C)CC4)cc3[nH]2)c1-c1ccccc1", "GI50": "361 nM", "TGI": "9270 nM"}, {"smiles": "O=[N+]([O-])c1cccc(C2CC(c3ccccc3)=Nc3ccccc3S2)c1", "note": "(configuration not stated)", "GI50": "13400 nM", "TGI": "31200 nM"}, {"smiles": "COc1ccc(N(C)c2nc(N)nc3sc4c(c23)CCCC4)cc1", "GI50": "< 10 nM"}, {"smiles": "O=C(COc1cccc(/C=C2\\CSc3ccccc3C2=O)c1)Nc1nccs1", "GI50": "1590 nM", "TGI": "3150 nM"}, {"smiles": "Cn1c(-c2c(N)n(CCCN3CCOCC3)c3nc(C#N)c(C#N)nc23)nc2ccccc21", "GI50": "4640 nM", "TGI": "> 100000 nM"}, {"smiles": "COC(=O)c1ccc(NC(=O)Oc2ccc(N(CCCl)CCCl)cc2)cc1", "GI50": "1220 nM", "TGI": "9770 nM"}, {"smiles": "O=C(Nc1nc2ccccc2s1)Nc1ccc([N+](=O)[O-])cc1Cl", "GI50": "10100 nM", "TGI": "27200 nM"}, {"smiles": "Cn1cc(C2=C(c3cn(CCCCCSC(=N)N)c4ccccc34)C(=O)NC2=O)c2ccccc21", "GI50": "1550 nM", "TGI": "5460 nM"}, {"smiles": "NC(=S)c1c(N)n(C2OC(CO)C(O)C2O)c2ncnc(N)c12", "note": "(configuration not stated)", "GI50": "135 nM", "TGI": "326 nM"}, {"smiles": "O=C1NC(=NCCCc2ccccc2)S/C1=C\\c1ccc2ncccc2c1", "GI50": "4370 nM", "TGI": "17400 nM"}, {"smiles": "COc1ccc2c(OCc3nnc4ccc(-c5ccccc5)nn34)ccnc2c1", "GI50": "3220 nM", "TGI": "> 100000 nM"}, {"smiles": "CC[C@H](C)[C@H](NC(=O)[C@H]1CCCCN1C)C(=O)N(C)[C@H](C[C@@H](OC(C)=O)c1nc(C(=O)N[C@@H](Cc2ccccc2)C[C@H](C)C(=O)O)cs1)C(C)C", "GI50": "0.378 nM and 1.65 nM", "TGI": "3.98 nM"}, {"smiles": "Oc1[nH]c2ccccc2c1/C=c1/cc2c(c(-c3ccc(F)cc3)n1)=Nc1ccccc1-2", "GI50": "282 nM", "TGI": "978 nM"}, {"smiles": "CCN1CCN(C(=O)[C@]23CCC(C)(C)C[C@@H]2C2=CC[C@@H]4[C@@]5(C)C/C(=C/c6ccncc6)C(=O)C(C)(C)[C@@H]5CC[C@@]4(C)[C@]2(C)CC3)CC1", "GI50": "1430 nM", "TGI": "3140 nM"}, {"smiles": "COc1nnc2ccc(N3CCC(c4ccc(OCCN5CCN(C)C(=O)[C@H]5C)cc4)CC3)nn12", "GI50": "52 nM", "TGI": "> 34800 nM"}, {"smiles": "COc1cc2nc3cc([N+](=O)[O-])ccc3c(NCCNCC(C)(C)O)c2cc1OC", "GI50": "220 nM", "TGI": "614 nM"}, {"smiles": "CCOC(=O)c1cnc2c(C)cccc2c1Nc1ccc(C(C)=O)cc1", "GI50": "26300 nM", "TGI": "> 100000 nM"}, {"smiles": "N#CC1c2ccccc2C=CN1C(=O)N(c1ccccc1)c1ccccc1", "note": "(configuration not stated)", "GI50": "1700 nM", "TGI": "3400 nM"}, {"smiles": "COc1ccc(/C(C#N)=C2C=C/C(=N/O)c3ccccc3\\2)cc1", "GI50": "395 nM", "TGI": "16500 nM"}, {"smiles": "Cn1ncc2ncc(-c3ccc4ncc(C#N)c(N5CCc6cc(F)c(Cl)cc65)c4c3)cc21", "GI50": "2440 nM", "TGI": "10600 nM"}, {"smiles": "CN(Cc1cnc2nc(N)nc(N)c2n1)c1ccc(C(=O)NC(CCC(=O)O)C(=O)O)cc1Br", "note": "(configuration not stated)", "GI50": "< 10 nM", "TGI": "1910 nM"}, {"smiles": "O=c1oc2ccc(-c3ccc(F)cc3F)cc2c(=O)n1-c1ccc(F)c(F)c1", "GI50": "1010 nM", "TGI": "4230 nM"}, {"smiles": "COc1cc2c(=O)[nH]c3cc([N+](=O)[O-])ccc3c2cc1[N+](=O)[O-]", "GI50": "1030 nM", "TGI": "4180 nM"}, {"smiles": "CC1OC(O[C@@H]2[C@H](O)C(CO)OC(O[C@H]3COC(O[C@H]4CC[C@]5(C)[C@H]6CC[C@]78OC[C@@]9(CCC(C)(C)C[C@H]97)[C@H](O)C[C@@]8(C)[C@]6(C)CC[C@H]5C4(C)C)[C@@H](OC4OC(CO)[C@@H](O)[C@@H](O)[C@@H]4O)[C@@H]3O)[C@H]2OC2OC[C@@H](O)[C@@H](O)[C@@H]2O)[C@@H](O)[C@@H](O)[C@H]1O", "note": "(some centres not stated)", "GI50": "2110 nM", "TGI": "4330 nM"}, {"smiles": "CCCCCCCCCCCC[n+]1ccc2ccccc2c1", "GI50": "206 nM", "TGI": "808 nM"}, {"smiles": "COC(=O)[C@H]1CCCN1C(=O)[C@H]1CCCN1C(=O)[C@H](Cc1c[nH]c2ccccc12)NC(=S)Nc1cc(C(F)(F)F)cc(C(F)(F)F)c1", "GI50": "3680 nM", "TGI": "68800 nM"}, {"smiles": "COc1cc(-c2nn(-c3cccc(NC(=O)c4ccc(Cl)c(C(F)(F)F)c4)c3)cc2-c2ccncc2)ccc1Cl", "GI50": "2740 nM", "TGI": "> 32500 nM"}, {"smiles": "CC[n+]1c(/C=C/C=C2\\N(C)c3ccccc3C2(C)C)sc2ccccc21", "GI50": "2770 nM", "TGI": "8440 nM"}, {"smiles": "CCN(CC)Cc1cc2[nH]c3c4ccc(Cl)cc4ncc3c2cc1OC", "GI50": "1870 nM and 1520 nM", "TGI": "3640 nM and 3000 nM"}, {"smiles": "CC(=O)[O][Hg][c]1c(C)c(C)cc(C)c1C", "GI50": "793 nM", "TGI": "2150 nM"}, {"smiles": "C=CC(=O)N1CC2(CC(n3nc(-c4ccc5c(cnn5C)c4)c(-c4c(Cl)c(C)cc5[nH]ncc45)c3C)C2)C1", "GI50": "2670 nM", "TGI": "9270 nM"}, {"smiles": "CSc1ccc2c(c1)C(N1CCN(C)CC1)Cc1ccccc1S2", "note": "(configuration not stated)", "GI50": "1470 nM", "TGI": "3060 nM"}, {"smiles": "O=C(CN1C(=O)S/C(=C\\C(Cl)=C\\c2ccccc2)C1=O)NC1C=CS(=O)(=O)C1", "note": "(configuration not stated)", "GI50": "531 nM", "TGI": "2290 nM"}, {"smiles": "c1ccc2c3c([nH]c2c1)C(c1ccc(C2NCCc4c2[nH]c2ccccc42)cc1)NCC3", "note": "(configuration not stated)", "GI50": "367 nM", "TGI": "1340 nM"}, {"smiles": "N=c1c2c(=N)n3c(nc2nc2n1-c1ccccc1Sc1ccccc1-2)sc1cc(Cl)ccc13", "GI50": "1340 nM", "TGI": "5410 nM"}, {"smiles": "CCn1c(-c2nonc2N)nc2cncc(C(=O)N3CC[C@H](N)C3)c21", "GI50": "4570 nM", "TGI": "24500 nM"}, {"smiles": "CN(CCCNC(=O)CCOCCOCCOCCNC(=O)Cc1ccc2ccc3cccc4ccc1c2c34)CCCNc1cc(-c2ccc3ccccc3c2)nc2ccccc12", "GI50": "509 nM", "TGI": "1030 nM"}]}]}
